The values that follow are results of earlier work, collected in patent US6627665B2 (Arch Chemicals, Inc., priority 2001, dated 2003).

This data set relates to rats.

On to `On1ccccc1=S.On1ccccc1=S.[Cu]` [Copper pyrithione powder, copper pyrithione], for which the “acute inhalation toxicity relative to zinc pyrithione powder” value is listed as “more toxic than zinc pyrithione powder”.
